Values joined by “and” are separate entries in the source; they are usually repeats but may differ in a detail not shown here. Equal entries are not always repeated.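 Interpolation was linear, between the two tested concentrations surrounding the appropriate level; five concentrations were tested over 48 hours in 96-well plates. At the GI50, growth is halved. Definition used: TGI = concentration required for complete inhibition of growth.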
How the values were obtained:
Assay in all cases: growth of human tumour cells (NCI), 48 h
[1] = test system: CAKI-1 renal
[2] = test system: HS 578T breast
[3] = test system: NCI-H23 lung
[4] = test system: NCI/ADR-RES ovarian
[5] = test system: OVCAR-4 ovarian
[6] = test system: PC-3 prostate
[7] = test system: SF-268 CNS
[8] = test system: SF-539 CNS
[9] = test system: SK-MEL-28 melanoma
[10] = test system: UACC-257 melanoma

| SMILES | TGI [1] | TGI [2] [µM] | TGI [3] | TGI [4] | TGI [5] | TGI [6] | TGI [7] | TGI [8] | TGI [9] | TGI [10] | GI50 [1] | GI50 [2] | GI50 [3] | GI50 [4] | GI50 [5] | GI50 [6] | GI50 [7] | GI50 [8] | GI50 [9] | GI50 [10] |
| --- | --- | --- | --- | --- | --- | --- | --- | --- | --- | --- | --- | --- | --- | --- | --- | --- | --- | --- | --- | --- |
| OCCn1cnc2c(SCc3ccccc3)ncnc21 | > 100 µM | > 100 | > 100 µM | > 100 µM | > 100 µM | > 100 µM | > 100 µM | > 100 µM | > 100 µM | > 100 µM |  |  |  |  |  |  |  |  |  |  |
| NC(=O)Nc1cc(-c2cccc(F)c2)sc1C(=O)N[C@H]1CCCNC1 | > 3.98 µM and 4.2 µM |  | 1.52 µM and 2.63 µM | > 10 µM and 19.8 µM | > 10 µM and 17.3 µM | > 10 µM and 17.5 µM | 3.35 µM and 4.14 µM | 0.17 µM and 0.331 µM | > 10 µM and 16.9 µM | > 10 µM and 9.82 µM | 0.184 µM and 0.888 µM | 0.0322 µM and 0.197 µM | 0.038 µM and 0.193 µM | 2.19 µM and 3.16 µM | 0.222 µM and 0.31 µM | 0.502 µM and 0.521 µM | 0.327 µM and 0.458 µM | 0.0192 µM and 0.0616 µM | 2.95 µM and 3.53 µM | 2.36 µM and 1.91 µM |
| CN(C)C(=O)c1ccc([N+](=O)[O-])cc1 | > 100 µM |  | > 100 µM |  | > 100 µM |  | > 100 µM | > 100 µM | > 100 µM | > 100 µM |  |  |  |  |  |  |  |  |  |  |
| CCc1cccc(C)c1NC(=O)C1=C(C)NC(C)=C(C(=O)Nc2c(C)cccc2CC)C1c1ccc2c(c1)OCO2 | 39.4 µM |  | 31.4 µM |  | 66.1 µM |  | 59.5 µM | 38.6 µM | 32.7 µM | 46.3 µM |  |  |  |  |  |  |  |  |  |  |
| CN(C)c1ccc(C(=NO)c2ccc(N(C)C)cc2)cc1 | 7.86 µM | > 100 | > 100 µM |  | > 100 µM | > 100 µM | > 100 µM | > 100 µM | > 100 µM | > 100 µM | 1.95 µM | 7.39 µM | 5.42 µM |  | 89 µM | 18.1 µM | 4.71 µM | 3.38 µM | 5.3 µM | 5.12 µM |
| CC(=O)[O][Sn]([CH2]c1ccccc1)([CH2]c1ccccc1)[CH2]c1ccccc1 | > 10 µM | > 9.44 | > 7.83 µM | > 10 µM | > 6.02 µM | > 10 µM |  | > 6.76 µM | > 6.79 µM | > 10 µM | > 10 µM | > 6.39 µM | > 5.98 µM | > 10 µM | > 4.36 µM | > 7.52 µM |  | > 5.42 µM | > 5.6 µM | > 10 µM |
| CCSc1nc(SCC)c2c(-c3ccc(OC)c(OC)c3)c(C#N)c(SCC)nc2n1 | 25.3 µM | 19.7 | 53.1 µM | 45 µM | > 100 µM | > 100 µM | 77.4 µM | 17.2 µM | > 100 µM | > 100 µM | 5.39 µM | 3 µM | 14.9 µM | 14.4 µM | 31.8 µM | 26.6 µM | 14.2 µM | 1.95 µM | 41.8 µM | 39.4 µM |
| CC1(C)CC2CC(CC(C)(C)C2=O)C1=O | > 100 µM |  | > 100 µM |  | > 100 µM |  | > 100 µM | > 100 µM | > 100 µM | > 100 µM |  |  |  |  |  |  |  |  |  |  |
| C[CH2][Sn]([CH2]C)([O]C(=O)c1ccccc1F)[O][Sn]([CH2]C)([CH2]C)[O]C(=O)c1ccccc1F | 27.7 µM |  | 33.6 µM |  | > 82.8 µM |  | 50.7 µM | 46.9 µM | 33.4 µM | 35.4 µM | 14.2 µM |  | 15.8 µM |  | > 51.7 µM |  | 23.2 µM | 20.5 µM | 18.7 µM | 18.4 µM |
| Cc1ccc(-c2nc3nc(-c4ccccc4)nc(N4CCNCC4)c3o2)cc1 | 2.95 µM |  | 3.53 µM | 2.21 µM | 1.6 µM | 2.46 µM | 4.02 µM | 1.85 µM | 3.43 µM | 3.8 µM | 1.53 µM |  | 1.8 µM | 0.776 µM | 0.435 µM | 0.947 µM | 1.75 µM | 0.703 µM | 1.89 µM | 1.98 µM |
| COc1cccc(NC(=O)CC(=O)N2N=C(n3ccc4ccccc43)CC2c2ccccc2)c1 (stereo not given) |  |  | > 100 µM |  | > 100 µM |  | > 100 µM | > 100 µM | > 100 µM | > 100 µM |  |  |  |  |  |  |  |  |  |  |
| Cc1ccc(-c2csc(NC(=O)N3CCN(c4cc5c(cc4F)c(=O)c(C(=O)O)cn5C4CC4)CC3)n2)cc1 |  | > 100 | > 100 µM | > 100 µM | > 100 µM | > 100 µM | > 100 µM | > 100 µM | > 100 µM | 6.58 µM |  | 0.666 µM | 0.391 µM | 4.65 µM | 2.64 µM | 0.454 µM | 0.371 µM | 0.418 µM | 0.494 µM | 2 µM |
| CCCN(CCC)C(=O)C(=O)c1c(N)[nH]n(-c2ccccc2)c1=O | > 100 µM |  | > 100 µM |  | > 100 µM |  | > 100 µM | > 100 µM |  | > 100 µM |  |  |  |  |  |  |  |  |  |  |
| CCOC(=O)/C(O)=C(/C(=O)OC)c1ccc(Cl)cc1 | > 100 µM |  | > 100 µM |  | > 100 µM |  | > 100 µM | > 100 µM | > 100 µM | > 100 µM |  |  |  |  |  |  |  |  |  |  |
| O=[N+]([O-])c1cc(Cl)cnc1Br |  | 59.9 | 24.2 µM | 6.72 µM | 3.82 µM | 20.2 µM | 5.81 µM | 4.5 µM | 10.2 µM | 22.6 µM |  |  |  |  |  |  |  |  |  |  |
| CN(C)C(=O)c1cnc2oc3ccc(O)cc3c2c1-c1ccccc1 | > 25 µM |  | > 25 µM | > 25 µM |  | > 25 µM | > 25 µM |  | > 25 µM | > 25 µM | > 25 µM |  | 11.5 µM | > 25 µM |  | 16.6 µM | 20.2 µM |  | 5.12 µM | > 25 µM |
| COC(=O)C(CC1=C(O)Nc2ccccc2N1)/C(=N/NC(N)=O)C(=O)Nc1ccccc1C (stereo not given) | > 100 µM |  | > 100 µM |  | > 100 µM |  | 45.2 µM | > 100 µM | > 100 µM | > 100 µM |  |  |  |  |  |  |  |  |  |  |

Reference: PubChem BioAssay (NCI)
